Experiments:
Test in all cases: cells
[1] = tested on: HuO-3N1; assay type: functional, cell-based, Homo sapiens; conditions: Homo sapiens, HuO-3N1;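 also: cell viability readout used to measure how strongly compounds suppress proliferation of human HuO-3N1 cells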
Description: SANGER: Inhibition of human HuO-3N1 cell growth in a cell viability assay.

[2] = tested on: SW756; assay type: functional, cell-based, Homo sapiens; conditions: Homo sapiens, SW756;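 also: growth inhibition of human SW756 cells, read out with a cell viability assay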
Description: SANGER: Inhibition of human SW756 cell growth in a cell viability assay.

[3] = tested on: KYSE-410; assay type: functional, cell-based, Homo sapiens; conditions: Homo sapiens, KYSE-410;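 also: growth inhibition of KYSE-410 cells, measured through a cell viability readout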
Description: SANGER: Inhibition of human KYSE-410 cell growth in a cell viability assay.

[4] = tested on: MFM-223; assay type: functional, cell-based, Homo sapiens; conditions: Homo sapiens, MFM-223
Description: SANGER: Inhibition of human MFM-223 cell growth in a cell viability assay.

[5] = tested on: HAL-01; assay type: functional, cell-based; conditions: Homo sapiens;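 also: growth inhibition of human HAL-01 cells, read out with a cell viability assay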
Description: SANGER: Inhibition of human HAL-01 cell growth in a cell viability assay.

[6] = tested on: MCF7; assay type: functional, cell-based, Homo sapiens; conditions: Homo sapiens, MCF7;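 also: growth inhibition of human MCF7 cells, read out with a cell viability assay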
Description: SANGER: Inhibition of human MCF7 cell growth in a cell viability assay.

[7] = tested on: EC-GI-10; assay type: functional, cell-based, Homo sapiens; conditions: Homo sapiens, EC-GI-10
Description: SANGER: Inhibition of human EC-GI-10 cell growth in a cell viability assay.

[8] = tested on: SK-N-DZ; assay type: functional, cell-based, Homo sapiens; conditions: Homo sapiens, SK-N-DZ;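 also: growth inhibition of the cancer cell line, read out through a viability assay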
Description: SANGER: Inhibition of human SK-N-DZ cell growth in a cell viability assay.

[9] = tested on: NCI-H1651; assay type: functional, cell-based, Homo sapiens; conditions: Homo sapiens, NCI-H1651;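 also: Read-out is a cell viability assay, with IC50 expressing inhibition of NCI-H1651 cell growth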
Description: SANGER: Inhibition of human NCI-H1651 cell growth in a cell viability assay.

[10] = tested on: NCI-H1792; assay type: functional, cell-based, Homo sapiens; conditions: Homo sapiens, NCI-H1792;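 also: growth inhibition of human NCI-H1792 cells, read out as cell viability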
Description: SANGER: Inhibition of human NCI-H1792 cell growth in a cell viability assay.

[11] = tested on: EW-18; assay type: functional, cell-based; conditions: Homo sapiens;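 also: growth inhibition of EW-18 cells, read out by a cell viability assay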
Description: SANGER: Inhibition of human EW-18 cell growth in a cell viability assay.

[12] = tested on: GMS-10; assay type: functional, cell-based, Homo sapiens; conditions: Homo sapiens, GMS-10;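 also: growth inhibition of GMS-10 cells, read out as cell viability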
Description: SANGER: Inhibition of human GMS-10 cell growth in a cell viability assay.

[13] = tested on: NCI-H82; assay type: functional, cell-based; conditions: Homo sapiens;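 also: growth inhibition of NCI-H82 cells, measured with a cell viability readout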
Description: SANGER: Inhibition of human NCI-H82 cell growth in a cell viability assay.

[14] = tested on: TE-12; assay type: functional, cell-based; conditions: Homo sapiens;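 also: growth inhibition of TE-12 cells, read out by a cell viability assay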
Description: SANGER: Inhibition of human TE-12 cell growth in a cell viability assay.

[15] = tested on: TE-1; assay type: functional, cell-based, Homo sapiens; conditions: Homo sapiens, TE-1;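 also: growth inhibition of the human TE-1 cell line, read out with a cell viability assay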
Description: SANGER: Inhibition of human TE-1 cell growth in a cell viability assay.

[16] = tested on: DSH1; assay type: functional, cell-based, Homo sapiens; conditions: Homo sapiens, DSH1;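 also: growth inhibition of human DSH1 cells, measured with a cell viability readout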
Description: SANGER: Inhibition of human DSH1 cell growth in a cell viability assay.

[17] = tested on: NCI-H1648; assay type: functional, cell-based, Homo sapiens; conditions: Homo sapiens, NCI-H1648;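 also: cell viability assay measuring inhibition of NCI-H1648 cell growth, from the Sanger screening data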
Description: SANGER: Inhibition of human NCI-H1648 cell growth in a cell viability assay.

[18] = tested on: A673; assay type: functional, cell-based, Homo sapiens; conditions: Homo sapiens, A673;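 also: growth inhibition of human A673 cells, read out through a cell viability assay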
Description: SANGER: Inhibition of human A673 cell growth in a cell viability assay.

[19] = tested on: BCPAP; assay type: functional, cell-based, Homo sapiens; conditions: Homo sapiens, BCPAP;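 also: growth inhibition of BCPAP cells, read out in a cell viability assay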
Description: SANGER: Inhibition of human BCPAP cell growth in a cell viability assay.

[20] = tested on: ES3; assay type: functional, cell-based, Homo sapiens; conditions: Homo sapiens, ES3;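 also: growth inhibition of ES3 cells, read out with a cell viability assay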
Description: SANGER: Inhibition of human ES3 cell growth in a cell viability assay.

[21] = tested on: ASPC1; assay type: functional, cell-based, Homo sapiens; conditions: Homo sapiens, ASPC1;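 also: growth inhibition of AsPC-1 cells, read out with a cell viability assay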
Description: SANGER: Inhibition of human AsPC-1 cell growth in a cell viability assay.

[22] = tested on: HEL; assay type: functional, cell-based, Homo sapiens; conditions: Homo sapiens, HEL;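 also: growth inhibition of HEL cells, read out with a cell viability assay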
Description: SANGER: Inhibition of human HEL cell growth in a cell viability assay.

[23] = tested on: A498; assay type: functional, cell-based, Homo sapiens; conditions: Homo sapiens, A498;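 also: growth inhibition of human A498 cells, read out with a cell viability assay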
Description: SANGER: Inhibition of human A498 cell growth in a cell viability assay.

[24] = tested on: MOLT-4; assay type: functional, cell-based; conditions: Homo sapiens;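 also: growth inhibition of MOLT-4 cells, determined with a cell viability readout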
Description: SANGER: Inhibition of human MOLT-4 cell growth in a cell viability assay.

[25] = tested on: MHH-PREB-1; assay type: functional, cell-based; conditions: Homo sapiens;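 also: cell viability assay measuring inhibition of proliferation of human MHH-PREB-1 cells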
Description: SANGER: Inhibition of human MHH-PREB-1 cell growth in a cell viability assay.

[26] = tested on: LCLC-97TM1; assay type: functional, cell-based, Homo sapiens; conditions: Homo sapiens, LCLC-97TM1;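 also: cell viability assay measuring growth inhibition of human LCLC-97TM1 cells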
Description: SANGER: Inhibition of human LCLC-97TM1 cell growth in a cell viability assay.

[27] = tested on: GP5d; assay type: functional, cell-based, Homo sapiens; conditions: Homo sapiens, GP5d;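 also: growth inhibition of human GP5d cells, read out with a cell viability assay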
Description: SANGER: Inhibition of human GP5d cell growth in a cell viability assay.

[28] = tested on: MDA-MB-175-VII; assay type: functional, cell-based, Homo sapiens; conditions: Homo sapiens, MDA-MB-175-VII
[29] = tested on: ONS-76; assay type: functional, cell-based, Homo sapiens; conditions: Homo sapiens, ONS-76;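 also: growth inhibition of human ONS-76 cells, read out with a cell viability assay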
Description: SANGER: Inhibition of human ONS-76 cell growth in a cell viability assay.

[30] = tested on: 697; assay type: functional, cell-based; conditions: Homo sapiens
Description: SANGER: Inhibition of human 697 cell growth in a cell viability assay.

[31] = tested on: MZ7-mel; assay type: functional, cell-based, Homo sapiens; conditions: Homo sapiens, MZ7-mel;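 also: growth inhibition of human MZ7-mel cells, measured by a cell viability assay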
Description: SANGER: Inhibition of human MZ7-mel cell growth in a cell viability assay.

[32] = tested on: BHY; assay type: functional, cell-based, Homo sapiens; conditions: Homo sapiens, BHY;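 also: cell growth inhibition read out by a viability assay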
Description: SANGER: Inhibition of human BHY cell growth in a cell viability assay.

[33] = tested on: HDLM-2; assay type: functional, cell-based; conditions: Homo sapiens;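 also: cell viability assay measuring suppression of HDLM-2 proliferation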
Description: SANGER: Inhibition of human HDLM-2 cell growth in a cell viability assay.

[34] = tested on: HCC1806; assay type: functional, cell-based, Homo sapiens; conditions: Homo sapiens, HCC1806;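 also: growth inhibition of the cancer cell line, determined with a cell viability assay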
Description: SANGER: Inhibition of human HCC1806 cell growth in a cell viability assay.

[35] = tested on: GOTO; assay type: functional, cell-based, Homo sapiens; conditions: Homo sapiens, GOTO;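 also: growth inhibition of GOTO cells, read out by a cell viability assay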
Description: SANGER: Inhibition of human GOTO cell growth in a cell viability assay.

[36] = tested on: NMC-G1; assay type: functional, cell-based, Homo sapiens; conditions: Homo sapiens, NMC-G1;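 also: growth inhibition of the NMC-G1 cell line, measured with a cell viability read-out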
Description: SANGER: Inhibition of human NMC-G1 cell growth in a cell viability assay.

[37] = tested on: CAL-39; assay type: functional, cell-based, Homo sapiens; conditions: Homo sapiens, CAL-39;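 also: cell viability assay measuring growth inhibition of CAL-39 cells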
Description: SANGER: Inhibition of human CAL-39 cell growth in a cell viability assay.

[38] = tested on: H4; assay type: functional, cell-based; conditions: Homo sapiens
Description: SANGER: Inhibition of human H4 cell growth in a cell viability assay.

[39] = tested on: SK-MEL3; assay type: functional, cell-based, Homo sapiens, SK-MEL-3; conditions: Homo sapiens, SK-MEL3;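 also: growth inhibition of human SK-MEL-3 cells, read out with a cell viability assay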
Description: SANGER: Inhibition of human SK-MEL-3 cell growth in a cell viability assay.

[40] = tested on: KYSE-450; assay type: functional, cell-based; conditions: Homo sapiens;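 also: cell growth inhibition measured by a viability assay in human KYSE-450 cells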
Description: SANGER: Inhibition of human KYSE-450 cell growth in a cell viability assay.

[41] = tested on: NCI-H1437; assay type: functional, cell-based, Homo sapiens; conditions: Homo sapiens, NCI-H1437;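 also: growth inhibition of human NCI-H1437 cells, read out by a cell viability assay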
Description: SANGER: Inhibition of human NCI-H1437 cell growth in a cell viability assay.

[42] = tested on: CAL-54; assay type: functional, cell-based, Homo sapiens; conditions: Homo sapiens, CAL-54;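 also: growth inhibition of CAL-54 cells, read out by a viability measurement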
Description: SANGER: Inhibition of human CAL-54 cell growth in a cell viability assay.

[43] = tested on: M059J; assay type: functional, cell-based, Homo sapiens; conditions: Homo sapiens, M059J;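 also: growth inhibition of M059J cells, read out with a cell viability assay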
Description: SANGER: Inhibition of human M059J cell growth in a cell viability assay.

[44] = tested on: GI-ME-N; assay type: functional, cell-based, Homo sapiens; conditions: Homo sapiens, GI-ME-N;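 also: growth inhibition of human GI-ME-N cells, read out with a cell viability assay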
Description: SANGER: Inhibition of human GI-ME-N cell growth in a cell viability assay.

[45] = tested on: SK-MEL-2; assay type: functional, cell-based, Homo sapiens; conditions: Homo sapiens, SK-MEL-2;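 also: growth inhibition of human SK-MEL-2 cells measured with a cell viability assay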
Description: SANGER: Inhibition of human SK-MEL-2 cell growth in a cell viability assay.

[46] = tested on: COLO-800; assay type: functional, cell-based, Homo sapiens; conditions: Homo sapiens, COLO-800;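 also: growth inhibition of COLO-800 cells, read out with a cell viability assay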
Description: SANGER: Inhibition of human COLO-800 cell growth in a cell viability assay.

[47] = tested on: Ca-Ski; assay type: functional, cell-based; conditions: Homo sapiens;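 also: cell viability assay measuring inhibition of Ca-Ski cell growth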
Description: SANGER: Inhibition of human Ca-Ski cell growth in a cell viability assay.

[48] = tested on: CAL-33; assay type: functional, cell-based, Homo sapiens; conditions: Homo sapiens, CAL-33;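 also: growth inhibition of CAL-33 cells, read out with a cell viability assay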
Description: SANGER: Inhibition of human CAL-33 cell growth in a cell viability assay.

[49] = tested on: NB5; assay type: functional, cell-based, Homo sapiens; conditions: Homo sapiens, NB5;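 also: growth inhibition of NB5 cells, read out as cell viability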
Description: SANGER: Inhibition of human NB5 cell growth in a cell viability assay.

[50] = tested on: NCI-H1155; assay type: functional, cell-based; conditions: Homo sapiens;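 also: cell growth inhibition measured by a viability assay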
Description: SANGER: Inhibition of human NCI-H1155 cell growth in a cell viability assay.

[51] = tested on: CCRF-CEM; assay type: functional, cell-based; conditions: Homo sapiens;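 also: inhibition of CCRF-CEM cell growth, measured by a cell viability assay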
Description: SANGER: Inhibition of human CCRF-CEM cell growth in a cell viability assay.

[52] = tested on: VMRC-RCZ; assay type: functional, cell-based; conditions: Homo sapiens;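 also: growth inhibition measured with a cell viability assay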
Description: SANGER: Inhibition of human VMRC-RCZ cell growth in a cell viability assay.

Cn1cncc1[C@@](N)(c1ccc(Cl)cc1)c1ccc2c(c1)c(-c1cccc(Cl)c1)cc(=O)n2C [TIPIFARNIB]
IC50 [1]: 4.17 µM | IC50 [2]: 13.6 µM | IC50 [3]: 3.5 µM | IC50 [4]: > 16 µM | IC50 [5]: 6.74 µM | IC50 [6]: 0.166 µM | IC50 [7]: > 16 µM | IC50 [8]: 4.71 µM | IC50 [9]: > 16 µM | IC50 [10]: > 16 µM | IC50 [11]: 0.458 µM | IC50 [12]: > 16 µM | IC50 [13]: 9.1 µM | IC50 [14]: 2.82 µM | IC50 [15]: 2.61 µM | IC50 [16]: 8.53 µM | IC50 [17]: 2.56 µM | IC50 [18]: 15.3 µM | IC50 [19]: 1.32 µM | IC50 [20]: 11.8 µM | IC50 [21]: > 16 µM | IC50 [22]: 0.394 µM | IC50 [23]: > 16 µM | IC50 [24]: 4.91 µM | IC50 [25]: 3.3 µM | IC50 [26]: 2.3 µM | IC50 [27]: 1.42 µM | IC50 [28]: > 16 µM | IC50 [29]: 1.47 µM | IC50 [30]: 1.28 µM | IC50 [31]: 0.722 µM | IC50 [32]: 1.05 µM | IC50 [33]: > 16 µM | IC50 [34]: 11.9 µM | IC50 [35]: > 16 µM | IC50 [36]: 0.425 µM | IC50 [37]: 0.962 µM | IC50 [38]: 1.22 µM | IC50 [39]: 4.98 µM | IC50 [40]: 0.729 µM | IC50 [41]: 8.21 µM | IC50 [42]: 11.9 µM | IC50 [43]: > 16 µM | IC50 [44]: > 16 µM | IC50 [45]: 0.484 µM | IC50 [46]: > 16 µM | IC50 [47]: 9.17 µM | IC50 [48]: 3.68 µM | IC50 [49]: > 16 µM | IC50 [50]: > 16 µM | IC50 [51]: 1.64 µM | IC50 [52]: 3.18 µM
